Test results reported in US6369268B1, “Diester amine adducts” (Ciba Specialty Chemicals Corporation, priority 1997, dated 2002).

Assays:
Assay in all cases: Agar diffusion test (microbiological test)
Assay type in all cases: cell-based
Settings in all cases: 100 μl of a 1% solution in abs. ethanol; 48 h incubation at 37° C.
[1] = test system: Staphylococcus aureus ATCC 9144
Procedure: (§1) Casein soybean flour peptone agar (Merck)
(§2) Casein soybean flour peptone broth (Merck)
Staphylococcus aureus ATCC 9144
(§3) Preparation of the Germ Suspensions
(§4) The test germs are cultivated overnight (about 18 h) at 37° C. in Caso-Broth (5 ml test tubes). The germ count of the overnight cultivation is determined by the spiralometer method and must be between 10^8-10^9 KBE/ml.
(§5) The culture is diluted to about 10^7 KBE/ml with 0.85% NaCl solution, pH 7.2.
(§6) Petri dishes are filled with about 18 ml of sterile nutrient agar which is allowed to solidify.
(§7) 3.5 ml of the germ dilution in 0.85% NaCl are pipetted into 500 ml of still liquid agar which is cooled in a water bath to 47° C. and homogenised.
(§8) 6 ml of the germ-infested agar are evenly distributed on the solidified ground layer. After a drying and storage time of about 24 hours at 4° C. the dishes are ready for the test.
(§9) Drop Amount 100 μl of a 1% solution of the tetraester of formula (104) in abs. ethanol are pipetted into the centre of the dish and are dried for about 30 minutes at room temperature (the substances run into zones of about 20-30 mm).
(§10) Results of the Agar Diffusion Test
(§11) After a 48 h incubation of the agar dishes at 37° C., the growth of the […] in the drop zone is assessed.

[2] = test system: Corynebacterium xerosis ATCC 373
Procedure: as §1, §2
Corynebacterium xerosis ATCC 373
as §3, §4, §5, §6, §7, §8, §9, §10, §11

[3] = test system: Escherichia coli NCTC 8196
Procedure: as §1, §2
Escherichia coli NCTC 8196
as §3, §4, §5, §6, §7, §8, §9, §10, §11

Row | SMILES | growth in the drop zone, Staphylococcus aureus ATCC 9144 [1] | growth in the drop zone, Corynebacterium xerosis ATCC 373 [2] | growth in the drop zone, Escherichia coli NCTC 8196 [3]
1 | CCCCC(CC)COC(=O)C[C@H](NCCN[C@@H](CC(=O)OCC(CC)CCCC)C(=O)OCC(CC)CCCC)C(=O)OCC(CC)CCCC (stereo partly drawn) [[S,S]-Ethylenediaminedisuccinic acid tetraisooctyl ester] | no inhibition | inhibition | no inhibition
2 | CCCCC(CC)COC(=O)CC(NCCNC(CC(=O)OCC(CC)CCCC)C(=O)OCC(CC)CCCC)C(=O)OCC(CC)CCCC (mixture of isomers) [ethylenediaminedisuccinic acid tetra(isooctyl)ester (isomer mixture), [S,S]-/[R,R]-/[R,S]-Ethylenediaminedisuccinic acid tetraisooctyl ester (isomer mixture)] | no inhibition | inhibition | no inhibition
